Assay results as given in patent US20220364990A1, “ANALYSIS OF OSCILLATORY FLUORESCENCE FROM BIOLOGICAL CELLS” (MOLECULAR DEVICES, LLC, priority 2019, published 2022).

Experiments:
[1] = test system: human iPSC-derived cardiomyocytes; experiment: Calcium oscillation assay in iPSC-derived cardiomyocytes (FLIPR Penta, EarlyTox Cardiotoxicity Kit, Peak Pro 2 analysis); format: cell-based; details: for primary peak prolongation / spacing of primary peaks: after thirty minutes treatment; for peaks detected in calcium oscillation trace (primary / secondary peaks): recorded two minutes after thirty minutes treatment
Protocol: Development of biologically relevant and predictive cell-based assays for compound screening and toxicity assessment is a major challenge in drug discovery. The focus of this study was to establish high-throughput-compatible cardiotoxicity assays using human-induced pluripotent stem cell (iPSC)-derived cardiomyocytes. To assess the utility of human iPSC-derived cardiomyocytes as an in vitro pro-arrhythmia model, the concentration dependence and responses were evaluated for 28 drugs linked to low, intermediate, and high torsades de pointes (TdP) risk categories. […] This assay allows for the characterization of parameters such as beating frequency, amplitude, peak width, and rise and decay times. […] The iPSC-derived cardiomyocytes generate spontaneous synchronized calcium oscillations. High speed fluorescence imaging with the FLIPR® Penta® System was used to measure the patterns and frequencies of the Ca^2+ oscillations in cardiomyocytes as monitored by changes in intracellular Ca^2+ levels with the EarlyToxTM Cardiotoxicity Kit. A set of 28 known cardiotoxic compounds, plus several benchmark compounds and negative controls, were tested in the assay. iPSC-derived Cardiomyocytes: Cryopreserved human iPSC-derived cells from Cellular Dynamics International (CDI) iCell® Cardiomyocytes2 were used for experiments. Cells were thawed and plated at 20,000/well (96-well format) or 10,000/well into 384-well format plates (Corning) and incubated for 7 days in maintenance media. […] In addition, assay-ready 384-Well plates with cardiomyocytes1 were obtained from […], Inc. Plates were shipped pre-plated and allowed to recover after arrival for 2 days. […] The FLIPR® Penta® System equipped with a new high speed camera allows better resolution of calcium oscillation patterns in cardiomyocytes. The ScreenWorks® Peak ProTM 2 software allows complex event analysis and detailed characterization of patterns using more than 20 available pattern descriptors. The assay can be used for testing developing drugs and screening chemicals for potential cardiotoxic hazards.

[2] = test system: Human iPSC-derived neural 3D co-cultures (microBrain 3D spheroids); experiment: Calcium oscillation assay in iPSC-derived neural 3D spheroids (microBrain 3D, FLIPR Calcium 6 Assay Kit, Peak Pro 2 analysis); format: cell-based; details: neural spheroid; for frequency of primary peaks relative to control: control DMSO; for peaks detected in calcium oscillation trace (primary / secondary peaks): recorded ten minutes after 30 minutes treatment
Excerpt: Human iPSC-derived neural 3D co-cultures (StemoniX® microBrain® 3D platform) have been developed as a high-throughput screening platform that more closely resembles the constitution of native human cortical brain tissue. Neural spheroid 3D co-cultures are a physiologically relevant co-culture of iPSC-derived, functionally-active cortical glutamatergic and GABAergic neurons co-differentiated and matured with astrocytes from the same donor. 3D neural spheroids contain a neural network enriched in synapses, creating a highly functional neuronal circuitry and display spontaneous synchronized, readily detectable calcium oscillations.
The neuronal cells in the microBrain® 3D spheroids generate spontaneous synchronized calcium oscillations. Fast kinetic fluorescence imaging by the FLIPR® Penta® system was employed to measure the patterns and frequencies of Ca^2+ oscillations of neuro-spheroids, as monitored by changes in intracellular Ca^2+ levels with the FLIPR® Calcium 6 Assay Kit. A set of known neuromodulators was tested, including agonists and antagonists of NMDA, GABA and AMPA receptors; kainic acid; and analgesic and anti-epileptic drugs. The fluorescence from each well of an entire 384-well plate was recorded simultaneously at a frequency of 2 Hz (0.5 second sampling interval) by high-speed imaging using the FLIPR® Penta® system.
Advanced analysis methods implemented in the ScreenWorks® Peak Pro™ 2 software module provide multi-parametric characterization of Ca^2+ flux oscillation patterns. This phenotypic assay creates readouts such as oscillation frequency, amplitude, peak width, peak rise and decay times, and peak amplitude/spacing irregularity. The effects of modulators of neuronal activity were evaluated by measuring changes in several measurements.
A set of over twenty compounds, including a number of known modulators of neuronal activity, was assayed at different time points and concentrations, and the EC50 values were calculated for compound effects. The time points included 0, 15, 30, 60, 90, and 120 minutes, and 24 hours.

[3] = 10 μM, after 30 minutes treatment
[4] = 0.3 μM, after 30 minutes treatment

## CC(C)NCC(O)c1ccc(NS(C)(=O)=O)cc1 (stereo not shown) [sotalol]
[1]; 10 μM
  primary peak prolongation: prolongated
  spacing of primary peaks: irregular spacing
  peaks detected in calcium oscillation trace (primary / secondary peaks): Primary peaks 118 and secondary peaks 150 are detected

## Nc1ccncc1 [4-aminopyridine]
[2]; 30 μM, after 30 minutes treatment
  frequency of primary peaks relative to control: increased relative to control
[2]; 30 μM
  peaks detected in calcium oscillation trace (primary / secondary peaks): Primary peaks 118 and secondary peaks 150 are detected

## NCC(CC(=O)O)c1ccc(Cl)cc1 (stereo not shown) [baclofen]
[2]; [3]
  spacing and amplitude regularity of primary peaks: irregular spacing and amplitude
  frequency of primary peaks relative to control: significantly lower frequency than control
[2]; 10 μM
  peaks detected in calcium oscillation trace (primary / secondary peaks): Only primary peaks 118 are detected

## C=C[C@H]1C[N@@]2CC[C@H]1C[C@@H]2[C@@H](O)c1ccnc2ccc(OC)cc12 [quinidine]
[1]; 10 μM
  primary peak prolongation: prolongated
  spacing of primary peaks: irregular spacing
  peaks detected in calcium oscillation trace (primary / secondary peaks): Primary peaks 118 and secondary peaks 150 are detected

## CN(CCOc1ccc(NS(C)(=O)=O)cc1)CCc1ccc(NS(C)(=O)=O)cc1 [dofetilide]
[1]; 10 μM
  spacing of primary peaks: irregular spacing

## C=C(C)[C@H]1CN[C@H](C(=O)O)[C@H]1CC(=O)O [kainic acid]
[2]; 1 μM, after 30 minutes treatment
  frequency of primary peaks relative to control: increased relative to control
[2]; 1 μM
  peaks detected in calcium oscillation trace (primary / secondary peaks): Primary peaks 118 and numerous secondary peaks 150 are detected

## CC(C)[C@@H]1NC(=O)[C@H](C)OC(=O)[C@@H](C(C)C)NC(=O)[C@@H](C(C)C)OC(=O)[C@H](C(C)C)NC(=O)[C@H](C)OC(=O)[C@@H](C(C)C)NC(=O)[C@@H](C(C)C)OC(=O)[C@H](C(C)C)NC(=O)[C@H](C)OC(=O)[C@@H](C(C)C)NC(=O)[C@@H](C(C)C)OC1=O [valinomycin]
[2]; [4]
  amplitude and spacing regularity of primary peaks: much more variable
  frequency of primary peaks relative to control: much less than control
[2]; 0.3 μM
  peaks detected in calcium oscillation trace (primary / secondary peaks): Primary peaks 118 and secondary peaks 150 are detected

## NCCCC(=O)O [GABA]
[2]; [3]
  frequency of primary peaks relative to control: significantly lower frequency than control
[2]; 10 μM
  peaks detected in calcium oscillation trace (primary / secondary peaks): Only primary peaks 118 are detected

## COc1ccc(CCN2CCC(Nc3nc4ccccc4n3Cc3ccc(F)cc3)CC2)cc1 [astemizole]
[1]; 1 μM
  peaks detected in calcium oscillation trace (primary / secondary peaks): No valid peaks are detected

## CCCCCCCN(CC)CCCC(O)c1ccc(NS(C)(=O)=O)cc1 (stereo not shown) [ibutilide]
[1]; 1 μM
  primary peak prolongation: prolongated
  peaks detected in calcium oscillation trace (primary / secondary peaks): Primary peaks 118 and secondary peaks 150 are present
